Values of other authors, collected in patent US20070092440A1, “Bone localising radiopharmaceutical and tubulin-interacting compound combinatorial” (priority 2003, published 2007).

Tests used:
[1] = in vivo
[2] = test system: HRPC patients with bone metastases
[3] = in bone
[4] = test system: bone pain, osteoblastic metastatic bone lesions; conditions: for treated patients with symptomatic relief of bone pain: in vivo
[5] = test system: leukocyte and platelet counts; conditions: 1.0 mCi/kg
[6] = repeated dosing with 1.0 mCi/kg
[7] = supplied frozen

## CC(=O)O[C@@]12CO[C@@H]1C[C@H](O)[C@@]1(C)C(=O)[C@H](O)C3=C(C)[C@@H](OC(=O)[C@H](O)[C@@H](NC(=O)OC(C)(C)C)c4ccccc4)C[C@@](O)([C@@H](OC(=O)c4ccccc4)[C@H]21)C3(C)C [docetaxel]
[1]
  myelosuppression: Myelosuppression has been observed

## COc1cccc2c1C(=O)c1c(O)c3c(c(O)c1C2=O)C[C@@](O)(C(=O)CO)C[C@@H]3O[C@H]1C[C@H](N)[C@H](O)[C@H](C)O1 [doxorubicin]
[2]; 72 HRPC patients with bone metastases, randomized
  overall survival: 16.8 months
[2]; in vivo
  incidence of Grade 3/4 neutropenia: 22%

## O=P([O-])(O)CN(CCN(CP(=O)([O-])O)CP(=O)(O)O)CP(=O)([O-])O.[153Sm+3] [samarium Sm 153 lexidronam]
After administration
  time in which the majority of excretion occurs: ≤ 8 h
  time to complete excretion: ≤ 12 h
In vivo
  clearance route: exclusively renal
  uptake by nonosseous tissue: no significant uptake
[3]
  range of emission: 1.7 mm
[4]; 1.0 mCi/kg dose group
  patients with pain relief at Week 4 who still had pain relief at Week 16: two-thirds
[4]
  treated patients with symptomatic relief of bone pain: approximately 80%
[5]
  median time of nadir of leukocyte and platelet counts: 4 weeks
  patients with Grade 3/4 haematologic toxicity: < 10%
  time by which recovery of counts is generally complete: 5-8 weeks
[6]
  cumulative toxicity on repeated dosing: not associated with cumulative toxicity
[1]
  myelosuppression: Myelosuppression has been observed
[7]
  drug product expiry after the time of calibration: 48 h

## [89Sr+2].[Cl-].[Cl-] [strontium 89 chloride]
[4]
  treated patients with symptomatic relief of bone pain: approximately 80%
